Data: ChEMBL document CHEMBL5465560, “Selectivity Literature for EUbOPEN Chemogenomic Library” (2024)

How the values were obtained:
[1] = Selectivity interaction (KinomeScan (DiscoverX)) EUB0000229b CDK2H; conditions: at 1 µM
[2] = biological target: Ribosomal protein S6 kinase alpha-2 (Homo sapiens) (UniProt Q15349); test: Selectivity interaction (KinomeScan (DiscoverX)) EUB0001079a RPS6KA2; conditions: at 1 µM
[3] = biological target: T1, Protein arginine N-methyltransferase 7 (Homo sapiens) (UniProt Q9NVM4); test: Selectivity interaction (Transferase panel (protein, RNA, and DNA methyltransferases. and EP300 (acetyltransferase))) EUB0000270b PRMT7
T1 sequence (whole entry): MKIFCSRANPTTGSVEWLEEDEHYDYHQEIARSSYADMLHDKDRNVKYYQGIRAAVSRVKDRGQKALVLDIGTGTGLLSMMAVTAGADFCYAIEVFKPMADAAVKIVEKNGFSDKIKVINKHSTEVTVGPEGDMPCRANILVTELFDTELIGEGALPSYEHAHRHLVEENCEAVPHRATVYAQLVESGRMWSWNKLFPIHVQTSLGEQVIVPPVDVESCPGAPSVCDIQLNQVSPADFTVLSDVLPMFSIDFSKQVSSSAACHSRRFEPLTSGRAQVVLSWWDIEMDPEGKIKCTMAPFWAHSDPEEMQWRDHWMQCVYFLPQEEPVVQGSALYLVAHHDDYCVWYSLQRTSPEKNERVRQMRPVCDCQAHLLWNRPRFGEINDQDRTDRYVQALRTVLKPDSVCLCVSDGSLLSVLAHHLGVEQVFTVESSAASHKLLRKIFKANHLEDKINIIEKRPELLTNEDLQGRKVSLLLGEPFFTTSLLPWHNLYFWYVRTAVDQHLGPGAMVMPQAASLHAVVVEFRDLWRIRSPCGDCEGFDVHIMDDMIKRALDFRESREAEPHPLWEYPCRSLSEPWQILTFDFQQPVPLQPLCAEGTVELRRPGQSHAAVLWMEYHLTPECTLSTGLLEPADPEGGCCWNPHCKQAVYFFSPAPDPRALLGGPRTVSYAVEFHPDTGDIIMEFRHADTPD

[4] = biological target: T2, Serine/threonine-protein kinase BRSK2 (Homo sapiens) (UniProt Q8IWQ3); test: Selectivity interaction (SelectScreen profiling (Invitrogen)) EUB0000607a BRSK2; conditions: at 2 µM
T2 sequence (whole entry): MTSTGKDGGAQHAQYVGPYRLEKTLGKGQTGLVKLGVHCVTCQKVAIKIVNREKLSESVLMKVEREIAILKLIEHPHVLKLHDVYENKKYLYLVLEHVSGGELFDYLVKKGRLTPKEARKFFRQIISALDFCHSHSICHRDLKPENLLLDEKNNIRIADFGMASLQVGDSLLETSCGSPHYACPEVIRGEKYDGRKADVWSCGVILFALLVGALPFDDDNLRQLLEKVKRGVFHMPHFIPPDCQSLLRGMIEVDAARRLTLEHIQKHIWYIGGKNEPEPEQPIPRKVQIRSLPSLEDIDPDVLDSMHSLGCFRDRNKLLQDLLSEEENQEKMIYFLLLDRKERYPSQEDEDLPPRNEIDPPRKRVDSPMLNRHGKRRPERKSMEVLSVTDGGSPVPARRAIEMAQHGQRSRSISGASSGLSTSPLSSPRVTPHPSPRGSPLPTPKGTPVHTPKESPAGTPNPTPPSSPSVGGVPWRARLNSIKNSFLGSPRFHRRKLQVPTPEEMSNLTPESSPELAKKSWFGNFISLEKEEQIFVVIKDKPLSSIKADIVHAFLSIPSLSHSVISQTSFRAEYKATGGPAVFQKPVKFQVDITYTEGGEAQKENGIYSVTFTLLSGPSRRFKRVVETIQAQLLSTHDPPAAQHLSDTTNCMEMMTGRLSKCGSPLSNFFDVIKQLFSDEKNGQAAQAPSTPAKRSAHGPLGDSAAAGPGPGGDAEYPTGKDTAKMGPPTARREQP

SRSF protein kinase 1 = SRSF protein kinase 1 (Homo sapiens, UniProt Q96SB4); test: Selectivity interaction (Kinase panel (Invitrogen)) EUB0000639a SRPK1; conditions: at 200 nM
[5] = biological target: T3, Serine/threonine-protein kinase D3 (Homo sapiens) (UniProt O94806); test: Selectivity interaction (ActivX KiNativ screen (kinase selectivity in THP-1 cell lysates)) EUB0000639a PRKD3; assay type: subcellular; conditions: lysate, at 5 µM
T3 sequence (whole entry): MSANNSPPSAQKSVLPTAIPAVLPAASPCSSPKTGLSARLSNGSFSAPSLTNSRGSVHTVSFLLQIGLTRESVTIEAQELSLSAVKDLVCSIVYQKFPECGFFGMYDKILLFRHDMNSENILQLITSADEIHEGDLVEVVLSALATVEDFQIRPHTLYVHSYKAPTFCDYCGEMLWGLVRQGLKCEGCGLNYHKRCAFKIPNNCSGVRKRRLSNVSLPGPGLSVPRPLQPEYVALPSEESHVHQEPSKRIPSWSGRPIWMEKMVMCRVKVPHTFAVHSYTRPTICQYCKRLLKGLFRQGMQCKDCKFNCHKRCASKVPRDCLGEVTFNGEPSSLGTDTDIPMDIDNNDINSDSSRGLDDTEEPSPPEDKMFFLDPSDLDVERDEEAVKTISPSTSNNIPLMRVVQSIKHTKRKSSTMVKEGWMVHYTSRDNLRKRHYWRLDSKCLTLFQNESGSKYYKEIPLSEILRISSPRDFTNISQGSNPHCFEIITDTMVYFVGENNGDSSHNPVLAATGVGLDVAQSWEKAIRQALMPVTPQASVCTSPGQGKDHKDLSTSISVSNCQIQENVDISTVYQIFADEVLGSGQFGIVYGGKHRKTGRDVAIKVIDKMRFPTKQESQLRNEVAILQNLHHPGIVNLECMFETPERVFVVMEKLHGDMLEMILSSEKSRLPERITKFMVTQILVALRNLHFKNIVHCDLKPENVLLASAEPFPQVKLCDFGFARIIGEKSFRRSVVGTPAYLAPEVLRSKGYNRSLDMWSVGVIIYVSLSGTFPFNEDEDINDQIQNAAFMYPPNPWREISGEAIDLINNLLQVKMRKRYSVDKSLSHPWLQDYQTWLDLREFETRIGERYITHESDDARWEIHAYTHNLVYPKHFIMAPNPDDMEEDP

[6] = biological target: Non-receptor tyrosine-protein kinase TYK2 (Homo sapiens, UniProt P29597); test: Selectivity interaction (ActivX KiNativ screen (kinase selectivity in THP-1 cell lysates)) EUB0000639a TYK2; assay type: subcellular; conditions: lysate, at 0.04 µM
[7] = biological target: Cyclin-dependent kinase 5 (Homo sapiens, UniProt Q00535); conditions: at 10 µM
[8] = biological target: Mitogen-activated protein kinase kinase kinase kinase 4 (Homo sapiens, UniProt O95819); conditions: at 10 µM
Mitogen-activated protein kinase kinase kinase kinase 4, sequence (O95819 2-1239 limits assumed): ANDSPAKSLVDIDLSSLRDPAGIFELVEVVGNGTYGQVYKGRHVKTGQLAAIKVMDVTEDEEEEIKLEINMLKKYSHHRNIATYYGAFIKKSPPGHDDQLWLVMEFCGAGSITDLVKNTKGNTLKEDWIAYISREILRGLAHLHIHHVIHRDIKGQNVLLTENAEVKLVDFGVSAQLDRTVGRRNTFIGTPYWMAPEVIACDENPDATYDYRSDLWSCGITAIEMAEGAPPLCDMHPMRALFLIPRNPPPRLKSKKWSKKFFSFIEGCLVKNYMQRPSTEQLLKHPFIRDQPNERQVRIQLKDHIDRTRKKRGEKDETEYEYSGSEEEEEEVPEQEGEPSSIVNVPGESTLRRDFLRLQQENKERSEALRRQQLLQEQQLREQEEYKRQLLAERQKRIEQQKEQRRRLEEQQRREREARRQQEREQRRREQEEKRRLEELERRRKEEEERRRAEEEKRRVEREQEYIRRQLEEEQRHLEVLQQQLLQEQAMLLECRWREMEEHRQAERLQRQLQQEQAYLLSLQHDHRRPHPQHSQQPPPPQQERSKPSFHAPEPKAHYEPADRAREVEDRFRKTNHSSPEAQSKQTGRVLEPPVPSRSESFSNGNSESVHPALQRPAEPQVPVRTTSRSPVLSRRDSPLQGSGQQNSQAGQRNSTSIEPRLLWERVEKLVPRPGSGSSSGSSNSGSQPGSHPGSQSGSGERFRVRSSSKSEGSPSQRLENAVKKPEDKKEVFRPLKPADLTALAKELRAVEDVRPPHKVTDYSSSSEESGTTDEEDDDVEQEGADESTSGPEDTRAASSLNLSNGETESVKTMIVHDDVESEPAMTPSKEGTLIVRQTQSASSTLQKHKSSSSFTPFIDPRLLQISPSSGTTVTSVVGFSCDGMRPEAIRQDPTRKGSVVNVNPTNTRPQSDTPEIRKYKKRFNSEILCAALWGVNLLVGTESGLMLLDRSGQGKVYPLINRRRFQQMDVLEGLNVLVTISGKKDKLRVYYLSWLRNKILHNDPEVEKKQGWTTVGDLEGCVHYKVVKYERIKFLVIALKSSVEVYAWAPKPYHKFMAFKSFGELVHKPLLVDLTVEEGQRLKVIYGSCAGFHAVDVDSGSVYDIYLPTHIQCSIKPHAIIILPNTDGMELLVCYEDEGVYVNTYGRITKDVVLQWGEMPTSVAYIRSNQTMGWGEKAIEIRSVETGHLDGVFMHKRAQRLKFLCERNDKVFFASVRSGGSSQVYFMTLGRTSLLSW

Ribosomal protein S6 kinase alpha-2 (Homo sapiens), sequence (Q15349 whole entry): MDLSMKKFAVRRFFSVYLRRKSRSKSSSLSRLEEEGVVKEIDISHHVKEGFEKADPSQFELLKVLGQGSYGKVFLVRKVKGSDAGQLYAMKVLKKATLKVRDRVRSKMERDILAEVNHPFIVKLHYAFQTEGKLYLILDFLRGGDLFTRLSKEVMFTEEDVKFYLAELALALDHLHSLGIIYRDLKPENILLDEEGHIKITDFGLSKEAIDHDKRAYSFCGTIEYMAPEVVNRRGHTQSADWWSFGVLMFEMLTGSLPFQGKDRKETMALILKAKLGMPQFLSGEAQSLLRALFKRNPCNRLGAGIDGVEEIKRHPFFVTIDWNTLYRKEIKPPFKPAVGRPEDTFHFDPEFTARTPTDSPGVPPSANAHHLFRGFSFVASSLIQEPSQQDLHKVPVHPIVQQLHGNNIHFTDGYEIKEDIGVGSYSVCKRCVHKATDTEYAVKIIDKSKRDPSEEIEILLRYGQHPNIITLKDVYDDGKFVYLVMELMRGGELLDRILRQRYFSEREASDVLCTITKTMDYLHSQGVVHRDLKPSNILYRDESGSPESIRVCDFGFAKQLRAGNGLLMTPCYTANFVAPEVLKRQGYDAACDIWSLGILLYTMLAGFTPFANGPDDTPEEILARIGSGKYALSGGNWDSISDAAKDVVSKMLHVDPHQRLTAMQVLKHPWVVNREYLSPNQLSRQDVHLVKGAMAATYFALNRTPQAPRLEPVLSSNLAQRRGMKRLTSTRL
Non-receptor tyrosine-protein kinase TYK2, sequence (P29597 whole entry): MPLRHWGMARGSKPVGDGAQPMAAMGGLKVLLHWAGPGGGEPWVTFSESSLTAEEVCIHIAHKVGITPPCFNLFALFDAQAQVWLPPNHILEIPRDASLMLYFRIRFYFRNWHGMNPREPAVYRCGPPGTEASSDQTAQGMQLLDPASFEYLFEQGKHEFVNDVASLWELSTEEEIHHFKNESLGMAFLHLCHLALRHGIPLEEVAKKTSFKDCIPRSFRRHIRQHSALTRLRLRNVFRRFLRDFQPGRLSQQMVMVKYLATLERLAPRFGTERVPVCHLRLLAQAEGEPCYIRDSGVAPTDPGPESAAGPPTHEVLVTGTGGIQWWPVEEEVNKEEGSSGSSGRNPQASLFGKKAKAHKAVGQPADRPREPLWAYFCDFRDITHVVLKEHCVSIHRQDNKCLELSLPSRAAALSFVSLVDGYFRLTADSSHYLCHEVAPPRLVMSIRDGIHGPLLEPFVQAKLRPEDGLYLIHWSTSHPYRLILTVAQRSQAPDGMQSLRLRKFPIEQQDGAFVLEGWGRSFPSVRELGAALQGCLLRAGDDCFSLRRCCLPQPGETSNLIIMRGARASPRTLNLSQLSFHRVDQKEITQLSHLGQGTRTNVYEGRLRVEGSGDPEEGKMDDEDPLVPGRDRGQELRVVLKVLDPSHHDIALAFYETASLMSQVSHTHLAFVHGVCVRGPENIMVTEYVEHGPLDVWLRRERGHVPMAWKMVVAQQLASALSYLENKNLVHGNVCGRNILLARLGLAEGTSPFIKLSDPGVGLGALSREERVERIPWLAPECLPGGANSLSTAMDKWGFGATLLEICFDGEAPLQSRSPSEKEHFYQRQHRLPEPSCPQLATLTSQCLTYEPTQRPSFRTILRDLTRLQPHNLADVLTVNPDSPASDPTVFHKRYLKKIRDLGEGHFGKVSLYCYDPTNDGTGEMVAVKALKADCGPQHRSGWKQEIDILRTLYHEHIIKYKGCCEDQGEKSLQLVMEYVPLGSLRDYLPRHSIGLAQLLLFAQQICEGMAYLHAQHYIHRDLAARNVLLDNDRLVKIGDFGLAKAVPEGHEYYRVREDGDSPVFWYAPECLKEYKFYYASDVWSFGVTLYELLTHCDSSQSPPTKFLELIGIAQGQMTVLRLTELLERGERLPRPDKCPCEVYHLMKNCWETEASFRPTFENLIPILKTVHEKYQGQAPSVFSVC
SRSF protein kinase 1, sequence (Q96SB4 whole entry): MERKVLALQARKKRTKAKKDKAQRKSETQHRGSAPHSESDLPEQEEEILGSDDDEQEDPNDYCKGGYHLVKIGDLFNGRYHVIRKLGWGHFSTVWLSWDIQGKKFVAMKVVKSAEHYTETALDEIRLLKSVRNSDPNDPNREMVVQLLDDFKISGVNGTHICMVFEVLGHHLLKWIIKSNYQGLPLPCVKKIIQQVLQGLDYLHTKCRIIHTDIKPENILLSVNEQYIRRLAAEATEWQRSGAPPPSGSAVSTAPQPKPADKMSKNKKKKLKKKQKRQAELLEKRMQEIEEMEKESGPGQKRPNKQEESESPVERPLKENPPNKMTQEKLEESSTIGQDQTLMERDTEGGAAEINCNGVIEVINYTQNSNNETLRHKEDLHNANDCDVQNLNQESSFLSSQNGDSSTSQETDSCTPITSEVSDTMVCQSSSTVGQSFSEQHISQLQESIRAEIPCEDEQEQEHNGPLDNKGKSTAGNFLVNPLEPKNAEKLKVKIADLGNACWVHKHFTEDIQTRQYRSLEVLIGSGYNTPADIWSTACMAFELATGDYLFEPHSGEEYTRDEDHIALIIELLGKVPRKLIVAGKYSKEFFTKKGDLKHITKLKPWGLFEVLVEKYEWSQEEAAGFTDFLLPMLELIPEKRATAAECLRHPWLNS
Cyclin-dependent kinase 5, sequence (Q00535 whole entry, looked up): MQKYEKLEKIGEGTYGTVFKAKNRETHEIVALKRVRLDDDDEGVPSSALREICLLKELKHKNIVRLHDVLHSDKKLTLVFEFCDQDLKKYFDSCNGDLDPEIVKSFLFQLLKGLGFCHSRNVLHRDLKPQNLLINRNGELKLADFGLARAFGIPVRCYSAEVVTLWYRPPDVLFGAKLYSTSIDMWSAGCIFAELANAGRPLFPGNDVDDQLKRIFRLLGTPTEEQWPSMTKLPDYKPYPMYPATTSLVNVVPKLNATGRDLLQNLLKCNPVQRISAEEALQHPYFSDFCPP

COc1cc(N(C)c2ccnc3ccc(C(F)(F)F)cc23)cc(OC)c1OC
% binding [1]: 100%

Nc1cnc(N2CCc3cc(S(=O)(=O)Nc4c(F)cc(Cl)cc4F)cc(N4CCCC4=O)c32)nc1 [TP-020n]
% of control [2]: 100%

Cc1cc(CN)cc(C)c1-c1ncn(C)c1-c1cncn1C
% activity ([3]; at 1 µM): > 90%
% activity ([3]; at 10 µM): > 80%

CNC(=O)Nc1ccc(-c2nc(N3CC4CCC(C3)O4)c3cnn(C4CCC5(CC4)OCCO5)c3n2)cc1
% of inhibition [4]: 1%

CC[C@@H]1[C@H](F)C(=O)N[C@@H]1COc1nccc2cc(C(N)=O)c(OC)cc12 [ZIMLOVISERTIB]
% of inhibition (SRSF protein kinase 1): 0.109%
% of inhibition [5]: -5.2%
% of inhibition [6]: 6.4%

CCN(CC)CCCCNc1ncc2cc(-c3cc(OC)cc(OC)c3)c(NC(=O)NC(C)(C)C)nc2n1
% of control [7]: 100%
% of control [8]: 100%
